# Results published in ChEMBL document CHEMBL1201862, “PubChem BioAssay data set” (2004).
# Activity calls are given as the source filed them.
# Legend:
# [1] = target: Endoplasmic reticulum aminopeptidase 1 (Homo sapiens, UniProt Q9NZ08); test: inhibition of human ERAP1 enzyme activity – biochemical, cherry-pick, set 2, plate reader, dose response (AID 743314)
# [2] = inhibition of ADAM10 peptide cleavage – biochemical, FRET peptide substrate, recombinant human ADAM10, selectivity assay for ADAM17 exosite inhibitor project, dose response (AID 743259);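 further: ADAM10 enzyme cleaving a FRET peptide substrate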
# [3] = target: Disintegrin and metalloproteinase domain-containing protein 17 (Homo sapiens, UniProt P78536); test: exosite inhibitors of ADAM17, dose response, biochemical (AID 743260)
# Chain of Disintegrin and metalloproteinase domain-containing protein 17 (P78536 whole entry, the tested form may be a part): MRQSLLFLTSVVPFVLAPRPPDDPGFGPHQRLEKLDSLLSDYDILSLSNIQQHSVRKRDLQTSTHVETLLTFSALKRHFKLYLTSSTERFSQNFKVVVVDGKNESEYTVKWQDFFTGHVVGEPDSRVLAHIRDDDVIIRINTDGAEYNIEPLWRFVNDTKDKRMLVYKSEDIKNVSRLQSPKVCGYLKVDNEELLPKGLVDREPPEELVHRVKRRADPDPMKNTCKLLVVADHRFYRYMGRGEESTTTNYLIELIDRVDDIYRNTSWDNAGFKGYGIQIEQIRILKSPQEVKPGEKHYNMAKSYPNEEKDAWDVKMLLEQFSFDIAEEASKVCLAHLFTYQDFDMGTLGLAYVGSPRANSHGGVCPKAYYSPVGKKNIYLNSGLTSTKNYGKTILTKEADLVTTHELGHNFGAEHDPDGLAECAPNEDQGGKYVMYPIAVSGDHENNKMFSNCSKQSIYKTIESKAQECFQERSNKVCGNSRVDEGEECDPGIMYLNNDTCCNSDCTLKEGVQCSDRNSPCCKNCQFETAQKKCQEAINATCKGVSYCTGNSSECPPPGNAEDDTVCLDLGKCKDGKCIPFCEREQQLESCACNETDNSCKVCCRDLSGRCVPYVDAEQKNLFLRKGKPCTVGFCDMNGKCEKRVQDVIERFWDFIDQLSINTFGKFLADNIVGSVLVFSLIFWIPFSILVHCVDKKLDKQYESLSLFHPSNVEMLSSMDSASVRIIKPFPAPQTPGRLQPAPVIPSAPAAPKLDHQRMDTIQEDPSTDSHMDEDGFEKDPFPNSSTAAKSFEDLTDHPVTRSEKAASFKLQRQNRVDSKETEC
# [4] = viability of uninfected HEp-2 cells – cell-based, HTS, cytotoxicity control for RSV inhibitor project, dose response (AID 2410); assay type: functional; settings: human respiratory syncytial virus
# [5] = viability loss in CEM21 cells – cell-based, CellTiter-Glo luminescence, cherry-picked, cytotoxicity control for viral fusion inhibitor project, dose response (AID 652042); assay type: functional;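 further: potency for signal decrease meaning cytotoxicity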
# [6] = blockers of HIV-1 envelope-mediated cell-cell fusion – cherry-pick, dose response (AID 652057); assay type: functional, cell-based
# [7] = HIV-1 AD8 envelope cell-cell fusion blockers – cherry-pick, dose response (AID 652062); assay type: functional, cell-based;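 further: luciferase signal from cell-cell fusion driven by HIV-1 clade B AD8 Env; potency is for inhibitors of fusion seen as a drop in luminescence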
# [8] = off-target signal loss in HeLa-CEM21 co-culture – HeLa F-luc CTL cells, cherry-picked, counter-screen for HIV-1 Env fusion inhibitor project, dose response (AID 652040); assay type: functional, cell-based;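 further: potency for signal decrease marking cytotoxic or nonspecific inhibition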
# [9] = target: T1, Sentrin-specific protease 7 (Homo sapiens, UniProt Q9BQF6); assay type: functional;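 further: Luminescence-based dose-response confirmation of ultra-high-throughput screening hits, measuring inhibition of SENP7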
# T1 sequence (Q9BQF6 whole entry): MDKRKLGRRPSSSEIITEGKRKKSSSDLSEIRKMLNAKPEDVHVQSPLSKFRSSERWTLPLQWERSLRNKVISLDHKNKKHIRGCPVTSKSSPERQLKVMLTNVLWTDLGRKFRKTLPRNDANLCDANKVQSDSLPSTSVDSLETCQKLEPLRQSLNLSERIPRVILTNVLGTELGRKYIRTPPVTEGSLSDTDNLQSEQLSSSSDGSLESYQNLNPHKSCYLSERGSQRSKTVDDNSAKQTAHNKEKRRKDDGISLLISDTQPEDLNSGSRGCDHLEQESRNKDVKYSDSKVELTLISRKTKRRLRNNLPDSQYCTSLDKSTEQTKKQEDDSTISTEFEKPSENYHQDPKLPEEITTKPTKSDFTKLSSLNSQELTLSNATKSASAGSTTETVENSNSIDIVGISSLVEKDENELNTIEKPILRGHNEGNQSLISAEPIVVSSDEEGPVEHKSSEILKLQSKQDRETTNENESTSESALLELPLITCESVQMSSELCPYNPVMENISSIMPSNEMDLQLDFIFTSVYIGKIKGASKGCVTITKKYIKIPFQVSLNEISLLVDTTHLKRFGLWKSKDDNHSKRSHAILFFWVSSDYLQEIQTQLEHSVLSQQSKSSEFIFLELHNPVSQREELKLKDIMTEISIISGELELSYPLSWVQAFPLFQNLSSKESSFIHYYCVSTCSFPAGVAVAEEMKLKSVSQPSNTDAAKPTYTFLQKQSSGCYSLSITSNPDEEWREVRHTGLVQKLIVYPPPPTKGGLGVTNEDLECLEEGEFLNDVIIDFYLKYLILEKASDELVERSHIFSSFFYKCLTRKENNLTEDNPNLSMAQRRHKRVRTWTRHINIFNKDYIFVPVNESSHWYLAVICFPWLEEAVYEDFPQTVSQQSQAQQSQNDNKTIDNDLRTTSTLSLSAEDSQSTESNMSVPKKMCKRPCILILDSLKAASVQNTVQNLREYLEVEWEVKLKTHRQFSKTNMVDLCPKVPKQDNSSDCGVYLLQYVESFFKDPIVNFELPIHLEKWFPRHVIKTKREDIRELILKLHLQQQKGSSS
# [10] = target: T2, Tyrosyl-DNA phosphodiesterase 2 (Homo sapiens, UniProt O95551); test: potency against TDP2 phosphodiesterase activity – biochemical, epi absorbance, IC50, dose response (AID 743297)
# T2 sequence (O95551 whole entry): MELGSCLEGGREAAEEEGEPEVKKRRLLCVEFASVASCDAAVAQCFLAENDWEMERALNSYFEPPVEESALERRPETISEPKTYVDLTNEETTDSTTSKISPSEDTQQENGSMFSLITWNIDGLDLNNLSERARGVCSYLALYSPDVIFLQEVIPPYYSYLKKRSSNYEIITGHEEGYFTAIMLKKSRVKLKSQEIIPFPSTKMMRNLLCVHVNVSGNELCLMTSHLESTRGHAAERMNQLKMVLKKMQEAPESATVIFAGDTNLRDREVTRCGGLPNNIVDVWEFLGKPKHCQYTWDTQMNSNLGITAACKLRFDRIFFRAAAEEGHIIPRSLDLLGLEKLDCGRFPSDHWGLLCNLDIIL
# [11] = target: T3, Sentrin-specific protease 8 (Homo sapiens, UniProt Q96LD8); assay type: functional
# T3 sequence (Q96LD8 whole entry): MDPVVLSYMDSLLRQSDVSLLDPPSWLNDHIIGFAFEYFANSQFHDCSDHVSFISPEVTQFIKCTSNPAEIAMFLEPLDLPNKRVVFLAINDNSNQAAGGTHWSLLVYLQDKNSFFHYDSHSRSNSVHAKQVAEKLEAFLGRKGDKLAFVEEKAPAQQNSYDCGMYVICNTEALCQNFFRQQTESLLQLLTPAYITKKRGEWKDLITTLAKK
# Caspase-3 = target: T4, Caspase-3 (Homo sapiens, UniProt P42574); assay type: functional;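 further: Dose-response selectivity test against caspase-3 for candidate inhibitors of sentrin-specific proteases (SENPs)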
# T4 sequence (P42574 whole entry): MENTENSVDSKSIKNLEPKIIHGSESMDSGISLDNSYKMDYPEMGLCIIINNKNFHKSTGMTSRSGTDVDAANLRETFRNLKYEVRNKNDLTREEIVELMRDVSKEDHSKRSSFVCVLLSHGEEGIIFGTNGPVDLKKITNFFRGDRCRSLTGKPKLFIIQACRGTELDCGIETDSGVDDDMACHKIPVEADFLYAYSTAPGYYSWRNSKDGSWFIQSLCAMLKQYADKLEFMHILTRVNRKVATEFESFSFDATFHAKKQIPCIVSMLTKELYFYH
# [12] = target: T5, Heat shock factor protein 1 (Mus musculus, UniProt P38532); test: enhancement of HSF1-driven luciferase signal – cell-based, NIH3T3, luminescence, dose retest, confirmation (AID 435004); assay type: functional;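 further: stress induced by proteasome inhibitor MG132 added 30 min after compound; luciferase reporter driven by HSF1 response element in NIH3T3 cells; actives raise luminescence as potentiators of the MG132 stress response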
# T5 sequence (P38532 whole entry): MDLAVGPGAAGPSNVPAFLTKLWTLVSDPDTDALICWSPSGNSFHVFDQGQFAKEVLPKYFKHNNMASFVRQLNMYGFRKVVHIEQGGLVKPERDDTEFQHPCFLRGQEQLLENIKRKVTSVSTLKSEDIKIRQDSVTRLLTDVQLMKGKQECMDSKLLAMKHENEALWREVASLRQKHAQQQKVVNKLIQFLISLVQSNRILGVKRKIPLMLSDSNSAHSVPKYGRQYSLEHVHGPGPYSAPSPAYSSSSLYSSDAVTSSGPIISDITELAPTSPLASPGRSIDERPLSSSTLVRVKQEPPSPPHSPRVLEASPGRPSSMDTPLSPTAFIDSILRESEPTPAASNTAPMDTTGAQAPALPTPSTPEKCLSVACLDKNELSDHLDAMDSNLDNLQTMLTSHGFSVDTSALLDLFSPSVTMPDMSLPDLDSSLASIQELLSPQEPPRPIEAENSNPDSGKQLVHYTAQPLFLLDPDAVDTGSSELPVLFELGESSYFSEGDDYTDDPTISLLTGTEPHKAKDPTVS
# [13] = microbe, parasite or virus in culture; assay type: functional; settings: Mycobacterium tuberculosis
# INS1 = test: INS-1E survival protection against cytokine death – cell-based, luminescence, retest, dose response (AID 449756); assay type: functional; settings: Rattus norvegicus;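 further: cell death triggered by IL-1 beta plus TNF-alpha plus IFN-gamma mixture; protective hits raise ATP signal compared with cytokine alone wells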
# [14] = target: T6, Sentrin-specific protease 6 (Homo sapiens, UniProt Q9GZR1); assay type: functional;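 further: Luminescence-based dose-response confirmatory assay of SENP6 inhibition, following up an ultra-high-throughput screen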
# T6 sequence (Q9GZR1 whole entry): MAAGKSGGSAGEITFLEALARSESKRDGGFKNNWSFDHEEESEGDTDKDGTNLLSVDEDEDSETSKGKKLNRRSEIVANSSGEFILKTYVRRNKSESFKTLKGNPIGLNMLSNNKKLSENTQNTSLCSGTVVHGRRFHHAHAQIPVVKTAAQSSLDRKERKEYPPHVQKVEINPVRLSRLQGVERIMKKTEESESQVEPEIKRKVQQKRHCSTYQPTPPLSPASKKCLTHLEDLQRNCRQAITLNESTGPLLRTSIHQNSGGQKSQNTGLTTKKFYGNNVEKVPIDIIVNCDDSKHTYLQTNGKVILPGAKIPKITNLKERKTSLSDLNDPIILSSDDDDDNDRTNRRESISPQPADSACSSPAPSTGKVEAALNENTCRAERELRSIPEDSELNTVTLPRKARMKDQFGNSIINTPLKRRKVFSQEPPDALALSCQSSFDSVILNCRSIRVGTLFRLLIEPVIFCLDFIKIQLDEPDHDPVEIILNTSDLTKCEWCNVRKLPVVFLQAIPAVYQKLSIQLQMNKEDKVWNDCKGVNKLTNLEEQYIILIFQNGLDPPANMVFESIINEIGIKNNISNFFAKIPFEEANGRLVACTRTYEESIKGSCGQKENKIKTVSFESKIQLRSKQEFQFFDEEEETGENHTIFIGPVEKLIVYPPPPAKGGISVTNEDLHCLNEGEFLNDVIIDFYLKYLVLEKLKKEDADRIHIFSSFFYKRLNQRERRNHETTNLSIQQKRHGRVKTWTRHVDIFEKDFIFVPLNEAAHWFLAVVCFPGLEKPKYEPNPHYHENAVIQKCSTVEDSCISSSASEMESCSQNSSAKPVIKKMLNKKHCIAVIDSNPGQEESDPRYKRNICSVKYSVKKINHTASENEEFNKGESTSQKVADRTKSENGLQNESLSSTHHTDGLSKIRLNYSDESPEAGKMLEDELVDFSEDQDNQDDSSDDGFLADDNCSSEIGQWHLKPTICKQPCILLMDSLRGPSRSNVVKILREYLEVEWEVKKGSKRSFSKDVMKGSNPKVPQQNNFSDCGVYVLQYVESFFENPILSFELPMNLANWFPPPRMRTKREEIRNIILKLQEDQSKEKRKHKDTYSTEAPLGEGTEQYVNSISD
# [15] = target: T7, Replicative DNA helicase DnaB (Mycobacterium tuberculosis, UniProt P9WMR3); test: DnaB intein splicing inhibitors, dose response, biochemical, cell-free fluorescence (AID 449749); assay type: functional
# T7 sequence (P9WMR3 whole entry): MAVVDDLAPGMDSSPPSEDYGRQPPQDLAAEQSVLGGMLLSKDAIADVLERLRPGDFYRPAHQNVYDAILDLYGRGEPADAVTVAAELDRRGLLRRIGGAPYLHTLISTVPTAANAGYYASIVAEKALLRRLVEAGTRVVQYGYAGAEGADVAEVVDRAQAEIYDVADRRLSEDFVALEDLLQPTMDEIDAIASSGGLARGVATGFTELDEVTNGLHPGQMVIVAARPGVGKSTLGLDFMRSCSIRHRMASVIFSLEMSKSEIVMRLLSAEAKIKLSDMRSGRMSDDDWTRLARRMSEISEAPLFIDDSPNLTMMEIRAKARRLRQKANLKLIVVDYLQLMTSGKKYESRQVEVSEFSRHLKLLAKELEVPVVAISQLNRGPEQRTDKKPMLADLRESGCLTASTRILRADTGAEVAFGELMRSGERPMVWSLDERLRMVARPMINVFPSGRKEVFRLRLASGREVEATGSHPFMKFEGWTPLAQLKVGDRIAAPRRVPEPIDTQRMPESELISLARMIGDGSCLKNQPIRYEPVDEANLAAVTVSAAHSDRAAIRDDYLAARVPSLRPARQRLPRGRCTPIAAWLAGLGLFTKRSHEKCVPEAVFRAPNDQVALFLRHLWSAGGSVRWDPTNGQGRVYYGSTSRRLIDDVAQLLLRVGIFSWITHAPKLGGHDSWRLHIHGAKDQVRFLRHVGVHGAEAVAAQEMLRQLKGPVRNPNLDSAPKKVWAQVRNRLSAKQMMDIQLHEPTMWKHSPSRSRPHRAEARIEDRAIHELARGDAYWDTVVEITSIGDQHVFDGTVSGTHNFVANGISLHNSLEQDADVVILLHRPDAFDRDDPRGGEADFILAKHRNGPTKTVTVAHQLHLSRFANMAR
# [16] = target: T3, Sentrin-specific protease 8; assay type: functional; remark: listed apart in the source
# [17] = target: T3, Sentrin-specific protease 8; assay type: functional; remark: listed apart in the source
# [18] = blockers of HIV-1 ZM109 envelope-driven cell-cell fusion – HeLa effector, CEM target cells, luciferase, cherry-pick, dose response (AID 652058); assay type: functional, cell-based;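 further: luciferase signal from HIV-1 Env mediated cell-cell fusion of effector and target cells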
# Chain of Endoplasmic reticulum aminopeptidase 1 (Q9NZ08 whole entry): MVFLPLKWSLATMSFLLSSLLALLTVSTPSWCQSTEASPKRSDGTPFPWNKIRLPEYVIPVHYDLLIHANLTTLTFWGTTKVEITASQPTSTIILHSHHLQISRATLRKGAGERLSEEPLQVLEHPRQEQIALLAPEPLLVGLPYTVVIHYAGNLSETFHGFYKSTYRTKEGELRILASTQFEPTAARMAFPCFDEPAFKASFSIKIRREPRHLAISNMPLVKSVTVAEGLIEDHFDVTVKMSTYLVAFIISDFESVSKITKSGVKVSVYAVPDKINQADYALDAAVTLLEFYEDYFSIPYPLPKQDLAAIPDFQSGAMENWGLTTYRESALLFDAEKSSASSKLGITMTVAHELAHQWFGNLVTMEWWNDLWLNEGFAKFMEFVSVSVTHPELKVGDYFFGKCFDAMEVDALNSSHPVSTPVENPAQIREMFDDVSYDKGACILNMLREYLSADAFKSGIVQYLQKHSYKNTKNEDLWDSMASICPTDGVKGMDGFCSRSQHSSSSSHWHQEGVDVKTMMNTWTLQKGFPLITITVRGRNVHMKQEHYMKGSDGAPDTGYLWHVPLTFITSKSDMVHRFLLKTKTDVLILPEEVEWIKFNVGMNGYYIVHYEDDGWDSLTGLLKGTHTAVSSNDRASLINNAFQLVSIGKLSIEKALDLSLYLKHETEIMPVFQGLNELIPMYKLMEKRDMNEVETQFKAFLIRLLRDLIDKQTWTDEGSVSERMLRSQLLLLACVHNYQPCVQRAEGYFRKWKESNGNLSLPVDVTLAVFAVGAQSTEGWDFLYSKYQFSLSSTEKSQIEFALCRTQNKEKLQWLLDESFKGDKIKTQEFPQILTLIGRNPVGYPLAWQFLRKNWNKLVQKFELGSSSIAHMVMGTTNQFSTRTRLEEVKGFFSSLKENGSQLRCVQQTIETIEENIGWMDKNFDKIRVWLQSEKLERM
structure (smiles),measurement,setting,value
CN1[C@@H]2Cn3c(ccc(/C=C/c4ccccc4)c3=O)[C@H]1[C@@H](C(=O)NC1CCCC1)[C@@H]2CO,AC50,[1],9.03 µM (active)
COc1ccc(NC(C)C(=O)N/N=C/c2ccccc2OCc2ccc(Br)cc2)cc1 (stereo not given),IC50,[2],> 69.5 µM (inactive)
same,IC50,[3],> 69.5 µM (inactive)
Cc1n[nH]c2c1C1(C(=O)N(Cc3ccc(Cl)cc3)c3ccccc31)C(C#N)=C(N)O2 (stereo not given),CC50,[4],25.1 µM (active)
same,AC50,[5],59.1 µM (active)
same,AC50,[6],3.62 µM (active)
same,AC50,[7],39.6 µM (active)
same,AC50,[8],55.2 µM (active)
S=C(Nc1ccc(Cl)cc1)Nc1cccc2cnccc12,IC50,[9],6.24 µM (active)
same,IC50,[10],130 µM (inactive)
same,IC50,[11],5.49 µM (active)
same,IC50,Caspase-3,11.7 µM (active)
same,EC50,[12],> 260 µM (inactive)
same,CC50,[13],> 40 µM (active)
same,AC50,INS1,> 260 µM (inactive)
same,IC50,[14],2.87 µM (active)
Nc1ccc(N2CCOCC2)c2nonc12,AC50,[15],18.8 µM (active)
same,IC50,[16],3.67 µM (active)
same,IC50,[10],> 128 µM (inactive)
same,IC50,[17],2.98 µM (active)
CCCCCCCCN1C(=O)[C@H](CC(=O)N2CCCCC2)C[C@@]2(C(=O)OCC)CCCC=C12,AC50,[5],37.2 µM (active)
same,AC50,[6],8.73 µM (active)
same,AC50,[18],13.9 µM (active)
same,AC50,[7],0.465 µM (active)
same,AC50,[8],> 70 µM (inactive)
Clc1ccc(OCCOCCOc2cccc3cccnc23)c(Br)c1,IC50,[2],> 69.5 µM (inactive)
same,IC50,[3],> 69.5 µM (inactive)
CN(C)c1ccc2c(c1)[C@@H]1C[C@H](CC(=O)NCc3ccc(-c4ccccc4)cc3)O[C@@H](CO)[C@@H]1O2,AC50,[5],40.9 µM (active)
same,AC50,[6],< 0.26 µM (active)
same,AC50,[7],2.51 µM (active)
